The text below walks through data of US9115093B2, “Substituted bicyclic dihydropyrimidinones and their use as inhibitors of neutrophil elastase activity” (Boehringer Ingelheim International GmbH, priority 2013, dated 2015).

Broadly, the IC50 is the point on the concentration scale where inhibition reaches its midpoint. A low value points to greater potency.

Molecules are shown by their SMILES.

The target in the assay is T1, neutrophil elastase (Homo sapiens, UniProt P08246).
T1 sequence (P08246 30-247 limits assumed): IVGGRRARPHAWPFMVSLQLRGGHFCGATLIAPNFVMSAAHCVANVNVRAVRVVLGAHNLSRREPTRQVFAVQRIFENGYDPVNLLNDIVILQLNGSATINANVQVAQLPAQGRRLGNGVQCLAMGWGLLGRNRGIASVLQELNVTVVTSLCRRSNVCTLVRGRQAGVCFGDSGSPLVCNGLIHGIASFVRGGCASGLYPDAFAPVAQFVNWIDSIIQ
Briefly: Human Neutrophil Elastase Assay. The arrangement: purchased Calbiochem 324681. Format: biochemical. Particulars: substrate MeOSuc-Ala-Ala-Pro-Val-AMC, pH 7.5, room temperature. The method, then:
Human Neutrophil Elastase Assay
Materials: Human neutrophil elastase was purchased from Calbiochem (Cat.No.: 324681) and the elastase substrate MeOSuc-Ala-Ala-Pro-Val-AMC from Bachem (Cat.No.: I-1270). All other materials were of the highest grade commercially available.
The following buffers were used: Compound buffer: 100 mM Tris, 500 mM NaCl, adjusted to pH 7.5; Assay buffer: 100 mM Tris, 500 mM NaCl, adjusted to pH 7.5, containing 0.01% BSA.
Assay conditions: Test compounds were prediluted in DMSO and subsequently in compound buffer (5% DMSO final). 5 μL of these compound dilutions were mixed with 10 μl Neutrophil elastase (9 ng/ml in assay buffer) in a black 384 well OptiPlate (Perkin Elmer, Cat No.: 6007270) and incubated for 15 min at room temperature. Subsequently 10 μL substrate solution in assay buffer were added (250 nM final concentration) and the plates were incubated for 60 min at room temperature. After inactivation of the enzyme, fluorescence intensities were measured at 380 nm excitation and 460 nm emission wavelengths.
Each plate contains wells with a high value control (DMSO+enzyme+substrate) and wells with a low value control (DMSO+inactivated enzyme+substrate). IC50 values were estimated using a sigmoidal concentration response curve with variable slope. Means of low values were taken as 0%, means of high values as 100%.
Molecule `N#Cc1ccc(C2C3=C(CCCC3=O)N(c3cccc(C(F)(F)F)c3)C(=O)N2CC(=O)NCC2CCCOC2)cc1` (centres unmarked) [Example 36.42] came in with an IC50 of 9.9 nM.

In the case of `CN(C)CCCN(C)C(=O)CN1C(=O)N(c2cccc(C(F)(F)F)c2)C2=C(C(=O)CCC2)C1c1ccc(C#N)cc1` (centres unmarked) [Example 36.43], the IC50 turned out to be 12.1 nM.

Consider `N#Cc1ccc(C2C3=C(CCCC3=O)N(c3cccc(C(F)(F)F)c3)C(=O)N2CC(=O)N2Cc3ccccc3C2)cc1` (centres unmarked) [Example 36.44], for which half-maximal inhibition (IC50) was put at 9.3 nM.

The molecule `N#Cc1ccc(C2C3=C(CCCC3=O)N(c3cccc(C(F)(F)F)c3)C(=O)N2CC(=O)N2CC[S+]([O-])CC2)cc1` (centres unmarked) [Example 36.45] gave an IC50 of 2.1 nM.

`N#Cc1ccc(C2C3=C(CCCC3=O)N(c3cccc(C(F)(F)F)c3)C(=O)N2CC(=O)N2Cc3cccnc3C2)cc1` (centres unmarked) [Example 36.46] showed an IC50 of 1.2 nM.

Molecule `CN(Cc1ccccc1)C(=O)CN1C(=O)N(c2cccc(C(F)(F)F)c2)C2=C(C(=O)CCC2)C1c1ccc(C#N)cc1` (centres unmarked) [Example 36.47] displayed an IC50 of 13.8 nM.

For `N#Cc1ccc(C2C3=C(CCCC3=O)N(c3cccc(C(F)(F)F)c3)C(=O)N2CC(=O)N2CCn3cccc3C2)cc1` (centres unmarked) [Example 36.48], the midpoint of inhibition, the IC50, lay at 6.2 nM.

Take `N#Cc1ccc(C2C3=C(CCCC3=O)N(c3cccc(C(F)(F)F)c3)C(=O)N2CC(=O)N2CCn3cncc3C2)cc1` (centres unmarked) [Example 36.49]: inhibition was half-maximal at 2.6 nM (IC50).

`N#Cc1ccc(C2C3=C(CCCC3=O)N(c3cccc(C(F)(F)F)c3)C(=O)N2CC(=O)N2CCn3nccc3C2)cc1` (centres unmarked) [Example 36.51]: the IC50 stood at 1.7 nM.

`N#Cc1ccc(C2C3=C(CCCC3=O)N(c3cccc(C(F)(F)F)c3)C(=O)N2CC(=O)NCc2ccc(=O)[nH]c2)cc1` (centres unmarked) [Example 36.52] came in with an IC50 of 11.7 nM.

Turning to `Cn1cc(NC(=O)CN2C(=O)N(c3cccc(C(F)(F)F)c3)C3=C(C(=O)CCC3)C2c2ccc(C#N)cc2)ccc1=O` (centres unmarked) [Example 36.53], the IC50 came out at 10.7 nM.

For `CN(Cc1cnn(C)c1)C(=O)CN1C(=O)N(c2cccc(C(F)(F)F)c2)C2=C(C(=O)CCC2)C1c1ccc(C#N)cc1` (centres unmarked) [Example 36.54], the IC50 came out at 2.9 nM.

In turn, `N#Cc1ccc(C2C3=C(CCCC3=O)N(c3cccc(C(F)(F)F)c3)C(=O)N2CC(=O)N2CCN(C3CC3)CC2)cc1` (centres unmarked) [Example 36.55] showed an IC50 of 21.6 nM.

Molecule `N#Cc1ccc(C2C3=C(CCCC3=O)N(c3cccc(C(F)(F)F)c3)C(=O)N2CC(=O)N2CCN3CCCC3C2)cc1` (centres unmarked) [Example 36.56] gave an IC50 of 8 nM.

`CN1C(=O)CCC1CNC(=O)CN1C(=O)N(c2cccc(C(F)(F)F)c2)C2=C(C(=O)CCC2)C1c1ccc(C#N)cc1` (centres unmarked) [Example 36.57]: the midpoint of inhibition, the IC50, lay at 10.4 nM.

The molecule `N#Cc1ccc(C2C3=C(CCCC3=O)N(c3cccc(C(F)(F)F)c3)C(=O)N2CC(=O)NCCN2CCCC2=O)cc1` (centres unmarked) [Example 36.58] yielded an IC50 of 10 nM.

In the case of `CN1CC(CNC(=O)CN2C(=O)N(c3cccc(C(F)(F)F)c3)C3=C(C(=O)CCC3)C2c2ccc(C#N)cc2)CC1=O` (centres unmarked) [Example 36.59], the IC50 stood at 8.6 nM.

The molecule `CC(=O)N1CCN(C(=O)CN2C(=O)N(c3cccc(C(F)(F)F)c3)C3=C(C(=O)CCC3)C2c2ccc(C#N)cc2)CC1` (centres unmarked) [Example 36.60] came in with an IC50 of 3.7 nM.

`N#Cc1ccc(C2C3=C(CCCC3=O)N(c3cccc(C(F)(F)F)c3)C(=O)N2CC(=O)NCCN2CCOCC2)cc1` (centres unmarked) [Example 36.63] showed an IC50 of 13.9 nM.

`N#Cc1ccc(C2C3=C(CCCC3=O)N(c3cccc(C(F)(F)F)c3)C(=O)N2CC(=O)N2CCc3cnccc3C2)cc1` (centres unmarked) [Example 36.64] showed an IC50 of 5.6 nM.

For the molecule `Cc1nc2c(o1)CN(C(=O)CN1C(=O)N(c3cccc(C(F)(F)F)c3)C3=C(C(=O)CCC3)C1c1ccc(C#N)cc1)CC2` (centres unmarked) [Example 36.65], the concentration for half-maximal inhibition (IC50) worked out at 16.2 nM.

As to `CN1CCC2(CCN(C(=O)CN3C(=O)N(c4cccc(C(F)(F)F)c4)C4=C(C(=O)CCC4)C3c3ccc(C#N)cc3)C2)C1` (centres unmarked) [Example 36.66], it took 5.8 nM to reach half-maximal inhibition (IC50).

In the case of `CN(CCN1CCCC1=O)C(=O)CN1C(=O)N(c2cccc(C(F)(F)F)c2)C2=C(C(=O)CCC2)C1c1ccc(C#N)cc1` (centres unmarked) [Example 36.67], the IC50 came out at 4.2 nM.

`CN(CCN1CCOCC1)C(=O)CN1C(=O)N(c2cccc(C(F)(F)F)c2)C2=C(C(=O)CCC2)C1c1ccc(C#N)cc1` (centres unmarked) [Example 36.68] yielded an IC50 of 8.7 nM.

The molecule `CN(C(=O)CN1C(=O)N(c2cccc(C(F)(F)F)c2)C2=C(C(=O)CCC2)C1c1ccc(C#N)cc1)C1CCS(=O)(=O)C1` (centres unmarked) [Example 36.69] displayed an IC50 of 3.1 nM.

Turning to `CS(=O)(=O)C1CCN(C(=O)CN2C(=O)N(c3cccc(C(F)(F)F)c3)C3=C(C(=O)CCC3)C2c2ccc(C#N)cc2)C1` (centres unmarked) [Example 36.70], inhibition was half-maximal at 2.3 nM (IC50).

Regarding `N#Cc1ccc(C2C3=C(CCCC3=O)N(c3cccc(C(F)(F)F)c3)C(=O)N2CC(=O)N2CCc3[nH]c(=O)ccc3C2)cc1` (centres unmarked) [Example 36.71], the IC50 turned out to be 2.2 nM.

Consider `N#Cc1ccc(C2C3=C(CCCC3=O)N(c3cccc(C(F)(F)F)c3)C(=O)N2CC(=O)N2CCN3C(=O)CCCC3C2)cc1` (centres unmarked) [Example 36.72], for which the IC50 is 3.7 nM.

`N#Cc1ccc(C2C3=C(CCCC3=O)N(c3cccc(C(F)(F)F)c3)C(=O)N2CC(=O)N2CC(=O)N3CCCCC3C2)cc1` (centres unmarked) [Example 36.73] returned a half-maximal inhibitory concentration (IC50) of 35.5 nM.

`N#Cc1ccc(C2C3=C(CCCC3=O)N(c3cccc(C(F)(F)F)c3)C(=O)N2CC(=O)N2CCC3(CC2)CNC(=O)O3)cc1` (centres unmarked) [Example 36.74] had an IC50 of 2.1 nM.

In the case of `CS(=O)(=O)N1CCN(C(=O)CN2C(=O)N(c3cccc(C(F)(F)F)c3)C3=C(C(=O)CCC3)C2c2ccc(C#N)cc2)CC1` (centres unmarked) [Example 36.75], the midpoint of inhibition, the IC50, lay at 2.4 nM.

Regarding `CS(=O)(=O)c1ccc(CNC(=O)N2C(=O)N(c3cccc(C(F)(F)F)c3)C3=C(C(=O)CCC3)C2c2ccc(C#N)cc2)cc1` (centres unmarked) [Example 37, 4-(4-Cyanophenyl)-N-(4-(methylsulfonyl)benzyl)-2,5-dioxo-1-(3-(trifluoromethyl)-phenyl)-1,2,5,6,7,8-hexahydroquinazoline-3(4H)-carboxamide], the IC50 is under 1 nM.

The molecule `CN(C)C(=O)N1C(=O)N(c2cccc(C(F)(F)F)c2)C2=C(C(=O)CCC2)C1c1ccc(C#N)cc1` (centres unmarked) [Example 38, 4-(4-Cyanophenyl)-N,N-dimethyl-2,5-dioxo-1-(3-(trifluoromethyl)phenyl)-1,2,5,6,7,8-hexahydroquinazoline-3(4H)-carboxamide] registered an IC50 of 67.1 nM.

Turning to `COCCNC(=O)N1C(=O)N(c2cccc(C(F)(F)F)c2)C2=C(C(=O)CCC2)C1c1ccc(C#N)cc1` (centres unmarked) [Example 39, 4-(4-Cyanophenyl)-N-(2-methoxyethyl)-2,5-dioxo-1-(3-(trifluoromethyl)phenyl)-1,2,5,6,7,8-hexahydroquinazoline-3(4H)-carboxamide], the IC50 came out at 1 nM.

With `CNC(=O)N1C(=O)N(c2cccc(C(F)(F)F)c2)C2=C(C(=O)CCC2)C1c1ccc(C#N)cc1` (centres unmarked) [Example 39.1], the IC50 came out at 1.2 nM.

`CCCNC(=O)N1C(=O)N(c2cccc(C(F)(F)F)c2)C2=C(C(=O)CCC2)C1c1ccc(C#N)cc1` (centres unmarked) [Example 39.2] yielded an IC50 of 1 nM.

Consider `N#Cc1ccc(C2C3=C(CCCC3=O)N(c3cccc(C(F)(F)F)c3)C(=O)N2C(=O)N2CC(O)C2)cc1` (centres unmarked) [Example 39.4], for which the IC50 was 13.4 nM.

The molecule `N#Cc1ccc(C2C3=C(CCCC3=O)N(c3cccc(C(F)(F)F)c3)C(=O)N2C(=O)NC2COC2)cc1` (centres unmarked) [Example 39.5] registered an IC50 of under 1 nM.

`N#Cc1ccc(C2C3=C(CCCC3=O)N(c3cccc(C(F)(F)F)c3)C(=O)N2C(=O)NCCCO)cc1` (centres unmarked) [Example 39.6] gave an IC50 of under 1 nM.

Consider `N#Cc1ccc(C2C3=C(CCCC3=O)N(c3cccc(C(F)(F)F)c3)C(=O)N2C(=O)N2CCOCC2)cc1` (centres unmarked) [Example 39.7], for which half-maximal inhibition (IC50) required 63.3 nM.

In the case of `N#Cc1ccc(C2C3=C(CCCC3=O)N(c3cccc(C(F)(F)F)c3)C(=O)N2C(=O)NCC2CCOC2)cc1` (centres unmarked) [Example 39.9], the IC50 is under 1 nM.

`COC1CCN(C(=O)N2C(=O)N(c3cccc(C(F)(F)F)c3)C3=C(C(=O)CCC3)C2c2ccc(C#N)cc2)C1` (centres unmarked) [Example 39.10]: the IC50 was 54.8 nM.

`CN(C)CCN(C)C(=O)N1C(=O)N(c2cccc(C(F)(F)F)c2)C2=C(C(=O)CCC2)C1c1ccc(C#N)cc1` (centres unmarked) [Example 39.11] yielded an IC50 of 23.2 nM.

As to `C[S+]([O-])CCNC(=O)N1C(=O)N(c2cccc(C(F)(F)F)c2)C2=C(C(=O)CCC2)C1c1ccc(C#N)cc1` (centres unmarked) [Example 39.12], the IC50 was under 1 nM.

On to `Cn1ccc(CNC(=O)N2C(=O)N(c3cccc(C(F)(F)F)c3)C3=C(C(=O)CCC3)C2c2ccc(C#N)cc2)n1` (centres unmarked) [Example 39.13], for which the IC50 worked out at 1 nM.

With `CN(C(=O)N1C(=O)N(c2cccc(C(F)(F)F)c2)C2=C(C(=O)CCC2)C1c1ccc(C#N)cc1)c1cnn(C)c1` (centres unmarked) [Example 39.14], it took 15 nM to reach half-maximal inhibition (IC50).

`CN1CCC(NC(=O)N2C(=O)N(c3cccc(C(F)(F)F)c3)C3=C(C(=O)CCC3)C2c2ccc(C#N)cc2)C1=O` (centres unmarked) [Example 39.15] returned an IC50 of under 1 nM.
